Experimental data: patent publication US20030232801A1, “Identification of compounds for the treatment or prevention of proliferative diseases” (priority 2001, published 2003)

Tests used:
[1] = tested on: 6D-2 cells (MCF-7 human breast cancer cells stably transfected with luciferase linked to the 5′ and 3′UTRs of human HER2); test: Cellular toxicity, MTS cell viability, 6D-2 cells; assay type: cell-based; details: for IC50: MTS viability
Protocol: (§1) 6D-2 cells (MCF-7 human breast cancer cells stably transfected with luciferase linked to the 5′ and 3′UTRs of human HER2) were added to 96-well plates at 7500 cells per well in 200 μL medium and incubated for 24 hours at 100% humidity, 5% CO2, and 37° C. Compounds were diluted from DMSO stock solutions into medium and were added at various concentrations. The 6D-2 cells were incubated for 16 hours at which time the volume of medium in each well was reduced to 100 μL using a plate washer. 20 μL of MTS cell viability reagent (Promega, Madison, Wis.) was then added to each well, and the plates were incubated for 1-4 hours. A plate containing wells with 100 μL medium plus MTS reagent was prepared to determine the background reading. The plates were read on the Wallac 2 plate reader (PerkinElmer Life Science, Boston, Mass.) at 490 nm. Percent viability was calculated as (O.D. of compound treated cells−background O.D.)/(O.D. of DMSO treated cells−background O.D.)×100. MT-4 cells (adult human T-cell leukemia cells) were plated at 1.5×10^5 cells per well in 200 μL medium and incubated for at least one hour before the addition of compounds. The cells were incubated for 5 days at 100% humidity, 5% CO2, and 37° C. Cell viability was determined as described for 6D-2 cells.
(§2) Compounds of the invention containing a pyrrolidine substituent were tested for toxicity to cancerous and non-cancerous cells. 6D-2 cellular activity is representative of potency as an antitumor agent. MT-4 cellular activity is representative of general toxicity. A high IC50 for MT-4 cells and a low IC50 for 6D-2 cells is indicative of a compound of potential therapeutic use in treating or preventing proliferative diseases, such as cancer.

[2] = tested on: MT-4 cells (adult human T-cell leukemia cells); test: Cellular toxicity, MTS cell viability, MT-4 cells; assay type: cell-based; details: for IC50: 5 day, MTS viability
Protocol: as §1, §2

[3] = Cellular toxicity, MTS cell viability, 6D-2 cells; assay type: cell-based, human; details: Homo sapiens, MCF7, MTS viability
Protocol: as §1, §2

Structure (SMILES) | IC50 [1] [µM] | IC50 [2] [µM] | also measured
COC[C@@H]1CCCN1C1=C(Nc2ccc(F)cc2)C(=O)c2ccccc2C1=O [Example 19, 2-(N-4-fluoroanilino)-3-(2-(S)-methoxymethylpyrrolidino)-1,4-naphthoquinone] | 8.95 |  | MT-4 5 day, percent @.10 μM [2]: 97% @.10 μM
O=C1C(Nc2ccc(F)cc2)=C(N2CCCC2)C(=O)c2ncccc21 [Example 5, 6-(N-4-fluoroanilino)-7-pyrrolidino-5,8-quinolinedione] | 0.77 | 6.69 | 
CC(C)(C)OC(=O)Nc1ccc(NC2=C(N3CCCC3)C(=O)c3ccccc3C2=O)cc1 [Example 6, N-4-((3-pyrrolidino-1,4-naphthalenedion-2-yl)amino)phenyl-O-1.1-dimethylethylcarbamate] | 0.57 | 2.78 | 
COCCNC(=O)Nc1ccc(NC2=C(N3CCCC3)C(=O)c3ccccc3C2=O)cc1 [Example 27, N′-4-((3-pyrrolidino-1,4-naphthalenedion-2-yl)amino)phenyl-N^2-(2-methoxyethyl)urea] | 0.21 | 0.56 | 
CC1CCCN1C1=C(Nc2ccc(F)cc2)C(=O)c2ccccc2C1=O (stereo not shown) [Example 18, 2-(N-4-fluoroanilino)-3-(2-methylpyrrolidino)-1,4-naphthoquinone] | 2.63 | 5.24 | 
O=C1C(Nc2ccc(F)c(F)c2)=C(N2CCCC2)C(=O)c2ccc([N+](=O)[O-])cc21 [Example 33, 7-Nitro-2-(N-3,4-difluoroanilino)-3-pyrrolidino-1,4-naphthoquinone] | 1 | 0.7 | 
O=C1C(Nc2cccc(F)c2)=C(N2CCCC2)C(=O)c2ccccc21 [Example 16, 2-(N-3-fluoroanilino)-3-pyrrolidino-1,4-naphthoquinone] | 1.36 |  | MT-4 5 day, percent @.10 μM [2]: 68% @.10 μM
CC(C)NC(=S)Nc1ccc(NC2=C(N3CCCC3)C(=O)c3ccccc3C2=O)cc1 [Example 11, N^1-4-((3-pyrrolidino-1,4-naphthalenedion-2-yl)amino)phenyl-N^2-(1-methylethyl)thiourea] | 0.33 | 6.15 | 
COc1ccc(NC2=C(N3CCCC3)C(=O)c3ccccc3C2=O)cc1 [Example 9, 2-(N-4-methoxyanilino)-3-pyrrolidino-1,4-naphthoquinone] | 0.1 | 0.52 | 
O=C(Nc1ccc(NC2=C(N3CCCC3)C(=O)c3ccccc3C2=O)cc1)c1ccco1 [Example 20, 2-(4-(2-furanoylamino)phenylamino)-3-pyrrolidino-1,4-naphthoquinone] |  |  | IC50 [3]: 0.06 µM; IC50 ([2]; Homo sapiens, MT4, 120 h): 0.11 µM
CC(=O)Nc1ccc(NC2=C(N3CCCC3)C(=O)c3ccncc3C2=O)cc1 [Example 3B, 7-(N′-4-aminoacetanilide)-6-pyrrolidino-5,8-isoquinolinedione] | 4.08 | 6.79 | 
NC(=O)Nc1ccc(NC2=C(N3CCCC3)C(=O)c3ccccc3C2=O)cc1 [Example 28, 2-(N-(4-carbamidoanilino))-3-pyrrolidino-1,4-naphthoquinone] | 0.31 |  | MT-4 5 day, percent @ 10 μM [2]: 56% @ 10 μM
O=C1C(Nc2ccccc2)=C(N2CCCC2)C(=O)c2ccccc21 [Example 14, 2-(N-anilino)-3-pyrrolidino-1,4-naphthoquinone] | 0.76 | 2.1 | 
O=C(Nc1ccccc1)Nc1ccc(NC2=C(N3CCCC3)C(=O)c3ccccc3C2=O)cc1 [Example 25, N^1-4-((3-pyrrolidino-1,4-naphthalenedion-2-yl)amino)phenyl-N^2-phenylurea] | 1.06 | 2.22 | 
COC(=O)Nc1ccc(NC2=C(N3CCCC3)C(=O)c3ccccc3C2=O)cc1 [Example 22, N-4-((3-pyrrolidino-1,4-naphthalenedion-2-yl)amino)phenyl-O-methylcarbamate] | 0.14 | 0.47 | 
NCC(=O)c1cccc(NC2=C(N3CCCC3)C(=O)c3ccccc3C2=O)c1 [Example 13, 2-(N-3-aminoacetylanilino)-3-pyrrolidino-1,4-naphthoquinone] |  |  | 6D-2 24 hr, percent @.10 μM [1]: 70% @.10 μM; MT-4 5 day, percent @.10 μM [2]: 80% @.10 μM

Structure (SMILES) | IC50 [1] [µM] | IC50 [2] [µM] | also measured
CNC(=O)Nc1ccc(NC2=C(N3CCCC3)C(=O)c3ccccc3C2=O)cc1 [Example 26] | 0.11 | 0.75 | 
CN(C)C1=C(Nc2cccc(F)c2)C(=O)c2ccccc2C1=O [Example 17, 2-(N-3-fluoroanilino)-3-dimethylamino-1,4-naphthoquinone] | 10 |  | MT-4 5 day, percent @.10 μM [2]: 100% @.10 μM
O=C1C(Nc2ccc(F)cc2)=C(N2CCCC2)C(=O)c2ccccc21 [Example 30, 2-(N-4-Fluoroanilino)-3-pyrrolidino-1,4-naphthoquinone] | 0.52 | 4.47 | 
COC(=O)Nc1cccc(NC2=C(N3CCCC3)C(=O)c3ccccc3C2=O)c1 [Example 23, N-3-((3-pyrrolidino-1,4-naphthalenedion-2-yl)amino)phenyl-O-methylcarbamate] | 0.87 | 10.2 | 
COc1ccc(NC2=C(N3CCCC3)C(=O)c3ccccc3C2=O)cn1 [Example 8, 2-(N-2-methoxy-5-aminopyridine)-3-pyrrolidino-1,4-naphthoquinone] | 0.12 | 1.11 | 
Nc1ccc2c(c1)C(=O)C(N1CCCC1)=C(Nc1ccc(F)c(F)c1)C2=O [Example 31, 6-Amino-2-(N-3,4-difluoroanilino)-3-pyrrolidino-1,4-naphthoquinone] | 1.5 | 0.3 | 
Cc1cc(=O)oc2cc(NC3=C(N4CCCC4)C(=O)c4ccccc4C3=O)ccc12 [Example 10, 7-((3-pyrrolidino-1,4-naphthalenedion-2-yl)amino)-4-methylcoumarin] |  |  | IC50 [3]: 6.78 µM; IC50 ([2]; Homo sapiens, MT4, 120 h): 1.18 µM
CC(=O)Nc1ccc(NC2=C(N3CCCC3)C(=O)c3cnccc3C2=O)cc1 [Example 3A, 6-(N′-4-aminoacetanilide)-7-pyrrolidino-5,8-isoquinolinedione] | 0.37 | 5.16 | 
CNC(=S)Nc1ccc(NC2=C(N3CCCC3)C(=O)c3ccccc3C2=O)cc1 [Example 12, N^1-4-((3-pyrrolidino-1,4-naphthalenedion-2-yl)amino)phenyl-N^2-methylthiourea] | 0.1 | 8.7 | 
O=C1C(Nc2ccc(F)cc2)=C(N2CCCC2)C(=O)c2cnccc21 [Example 4, 6-(N′-4-fluoroanilino)-7-pyrrolidino-5,8-isoquinolinedione] | 1.48 | 2.51 | 
Nc1ccc(NC2=C(N3CCCC3)C(=O)c3ccccc3C2=O)cc1 [Example 7, 2-(N-4-aminoanilino)-3-pyrrolidino-1,4-naphthoquinone] | 0.07 | 0.16 | 
CC(C)NC(=O)Nc1ccc(NC2=C(N3CCCC3)C(=O)c3ccccc3C2=O)cc1 [Example 24, N′-4-((3-pyrrolidino-1,4-naphthalenedion-2-yl)amino)phenyl-N^2-(1-methylethyl)urea] | 0.18 | 1.68 | 
COC(=O)Nc1ccc2c(c1)C(=O)C(N1CCCC1)=C(Nc1ccc(F)c(F)c1)C2=O [Example 32, 6-[(methoxycarbonyl)amino]-2-(N-3,4-difluoroanilino)-3-pyrrolidino-1,4-naphthoquinone] | 4 | 7 | 
CC(C)OC(=O)Nc1ccc(NC2=C(N3CCCC3)C(=O)c3ccccc3C2=O)cc1 [Example 21, N-4-((3-pyrrolidino-1,4-naphthalenedion-2-yl)amino)phenyl-O-(1-methylethyl)carbamate] | 1.38 | 2 | 
Nc1ccc(C(=O)N(C2=C(N3CCCC3)C(=O)c3ccccc3C2=O)c2ccccc2)cc1 [Example 15, 2-(N-4-aminobenzoylanilino)-3-pyrrolidino-1,4-naphthoquinone] |  |  | 6D-2 24 hr, percent @.10 μM [1]: 60% @.10 μM; IC50 ([2]; Homo sapiens, MT4, 120 h): 1 µM
O=C1C(Nc2ccc(F)c(F)c2)=C(N2CCCC2)C(=O)c2ccccc21 [Example 29, 2-(N-3,4-difluoroanilino)-3-pyrrolidino-1,4-naphthoquinone] | 2.34 |  | MT-4 5 day, percent @ 10 μM [2]: 40% @ 10 μM
